{
  "source": "paper PMC10989073",
  "about": "“Antineoplastic effect of compounds C14 and P8 on TNBC and radioresistant TNBC cells by stabilizing the K-Ras4B^G13D/PDE6δ complex” (Frontiers in Oncology, 2024)",
  "assay_type_in_all_cases": "cell-based, human",
  "key": {"MDA-MB-231 cells [1]": {"tested_on": "MDA-MB-231 cells", "assay": "XTT cell viability assay and IC50 determination", "details": "for IC50: XTT, ± SD; for concentration from which a significant cytotoxic effect is seen: compared to vehicle (DMSO)", "procedure": "In order to evaluate the effect of the C14 and P8 compounds over MCF-10A, MCF-7, MDA-MB-231, and […] cell lines, the IC50 of those molecules was determined. In brief, all the cell lines were seeded at a density of 15,000 cells per well in a 96-well microtiter plate (Corning) in a corresponding growth medium for 24 h. Then, cells were treated with increasing concentrations (from 0 to 200 μM) of the C14 and P8 compounds (Enamine, Kyiv, Ukraine). As a positive control, increased concentrations of cisplatin (from 0 to 200 µM) (Accord, Mexico City, Mexico) were employed. Due to that, dimethyl sulfoxide (DMSO) was used as a vehicle, and its increased concentrations were evaluated as the negative control. All the samples were maintained under growth conditions for 24 h and 48 h. At the end of each time, cell viability was determined using the XTT Cell Proliferation Kit II (Roche Applied Science, Mannheim, Germany) following the manufacturer’s protocol. The absorbance was measured in a spectrophotometer Synergy-HTX (BioTek) at a wavelength of 450–500 nm with a reference wavelength of 650 nm. Cell proliferation was expressed as a percentage of viability [(absorbance of treated cells/absorbance of untreated cells × 100)] ± SD."}, "Ras-GTP in MCF-10A cells": {"tested_on": "Ras-GTP in MCF-10A cells", "assay": "Ras activation pull-down assay (Raf-RBD)", "details": "3 h pre-treatment (C14, P8 at IC50-48H), EGF 100 ng/ml 10 min", "procedure": "Subsequently, the cells were stimulated with epidermal growth factor (EGF) (100 ng/ml) for 10 minutes. Lysates (1 mg/ml) were exposed to Ras GTP-binding protein (Raf-RBD), following the manufacturer’s instructions. Experiments for each cell type and condition were repeated three times."}, "[2]": {"tested_on": "AKT and ERK phosphorylation in MDA-MB-231 cells", "assay": "Western blotting of pAKT and pERK", "details": "MDA-MB-231, IC50-48 for 3 h, EGF 100 ng/ml 10 min, densitometry", "procedure": "(§1) To determine the effect of the C14 and P8 compounds over the protein effectors of K-Ras4B, AKT, and ERK, immunoblotting assays were conducted with specific antibodies. In brief, MCF-10A, MDA-MB-231, and MDA-MB-231RR cells were plated in 100-mm culture dishes until 80% of confluents. Cell adhesion was allowed for 24 h. […] After pre-treatment, cells were stimulated with 100 ng/ml EGF for 10 minutes to promote AKT and ERK activation. Later, the whole-cell extracts were obtained by the lysis of the cells (Cytoskeleton) in the presence of proteases and phosphatase inhibitors. Subsequently, the protein extracts were incubated at 4°C for 40 minutes to be clarified by centrifugation for 10 minutes at 14,000 rpm, at 4°C. The protein concentration of each extract was determined by using the Precision Red Advanced Protein Assay Reagent (Cytoskeleton) Then, approximately 25 μg of protein extract was electrophoresed in 10% sodium dodecyl sulfate–polyacrylamide gel electrophoresis (SDS-PAGE) and transferred to polyvinylidene fluoride (PVDF) membranes (Millipore, Billerica, MA, USA). Blots were probed using the following primary antibodies: Total ERK (Cell Signaling, Danvers, MA, USA), pERK (Cell Signaling), Total AKT (Cell Signaling), pAKT (Cell Signaling), GSK3β (Cell Signaling), and cyclin D1 (Abcam) at a 1:1,000 dilution. As a control, an anti-GAPDH antibody (GeneTex, Irvine, CA, USA) was employed at a 1:100,000 dilution and γ-Tubulin (Invitrogen) 1:5,000. Densitometric analysis of blots was performed using the software ImageJ version 1.45 (National Institutes of Health, Bethesda, […], USA)."}, "[3]": {"tested_on": "AKT and ERK phosphorylation in MCF-10A cells", "assay": "Western blotting of pAKT and pERK", "details": "IC50-48 for 3 h, EGF 100 ng/ml 10 min, densitometry", "procedure": "as §1"}, "[4]": {"tested_on": "AKT and ERK phosphorylation in MDA-MB-231RR cells", "assay": "Western blotting of pAKT and pERK", "details": "IC50-48 for 3 h, EGF 100 ng/ml 10 min, densitometry", "procedure": "as §1"}, "MDA-MB-231RR cells [5]": {"tested_on": "MDA-MB-231RR cells", "assay": "Cell cycle analysis (propidium iodide, flow cytometry)", "details": "3 h at IC50-48H, control 35.6%", "procedure": "After 3-h incubation, cells were harvested, washed twice in ice-cold PBS, and fixed overnight in 70% ethanol at 4°C. Then, cells were washed in PBS, collected by centrifugation, and stained with staining buffer (PBS with 50 µg/ml propidium iodide and 100 µg/ml RNase A)."}, "MDA-MB-231RR cells [6]": {"tested_on": "MDA-MB-231RR cells", "assay": "Clonogenic assay", "details": "for reduction in colony formation: 10 to 12 days, C14 and P8 at IC50-48, cisplatin 100 µM, doxorubicin 0.5 µM", "procedure": "(§2) The principal aim of a clonogenic assay is to evaluate the effect of chemotherapy agents or new drugs by the measurement of their ability to arrest tumor cell division and their ability to develop new colonies after their exposure to these new drugs ([56]). Therefore, the colony formation ability of the cell lines MCF-10A, MDA-MB-231, and MDA-MB-231RR was evaluated after their exposure to the C14 and P8 compounds. In brief, breast cancer cell lines were cultured in 6-well plates (Corning), seeding 300 cells per well, and incubated at 37°C in 5% CO2 for 24 h. Compounds C14 and P8 were added at the maximum evaluated concentration IC50-48. As controls, cells without treatment and cells treated in the presence of a vehicle (DMSO at 0.66%) were employed (Sigma-Aldrich). […] After 10 days of treatment, cells were fixed with 4% PFA and stained with 0.1% crystal violet in citric acid (Sigma-Aldrich) for 15 minutes. Subsequently, the dye present in the cells was extracted using isopropanol and read at 570 nm in a Synergy-HTX microplate reader (BioTek). Each test was performed in triplicate. Data were expressed as % colonies relative to the untreated control ([56])."}, "MDA-MB-231 cells [7]": {"tested_on": "MDA-MB-231 cells", "assay": "Clonogenic assay", "details": "MDA-MB-231, 10 to 12 days; C14 and P8 at IC50-48, cisplatin 100 µM, doxorubicin 0.5 µM", "procedure": "as §2"}, "[8]": {"tested_on": "cyclin D1 and GSK3β in MDA-MB-231 cells", "assay": "Western blotting of cyclin D1 and GSK3β", "details": "MDA-MB-231, 3 h; for reduction in cyclin D1 expression: C14 and P8 at IC50-24 (Figure 7 legend), cisplatin 100 µM, doxorubicin 0.5 µM; for reduction in GSK3β expression: IC50-24 (Figure 7 legend), densitometry", "procedure": "as §1"}, "[9]": {"tested_on": "cyclin D1 and GSK3β in MDA-MB-231RR cells", "assay": "Western blotting of cyclin D1 and GSK3β", "details": "3 h; for reduction in cyclin D1: C14 and P8 at IC50-24 (Figure 7 legend), cisplatin 100 µM, doxorubicin 0.5 µM; for reduction in GSK3β expression: IC50-24 (Figure 7 legend), densitometry", "procedure": "as §1"}},
  "note": "Where two headings read alike, the source gives them in different places.",
  "data": [
    {"molecule": "CN(CC(=O)NC1CCOc2ccccc21)Cc1cccc(Cl)c1", "note": "(stereo not shown) [C14, 2-[(3-chlorophenyl)-methyl-methyl-amino]-N-croman-4-yl-acetamide]", "values": [
      {"measurement": "IC50", "setting": "MDA-MB-231 cells [1]; MDA-MB-231, 24 h, read-out: IC50-24", "value": "91.1 ± 3.9", "unit": "µM"},
      {"measurement": "IC50", "setting": "MDA-MB-231 cells [1]; MDA-MB-231, 48 h, read-out: IC50-48", "value": "60 ± 6.6", "unit": "µM"},
      {"measurement": "concentration from which a significant cytotoxic effect is seen", "setting": "MDA-MB-231 cells [1]; MDA-MB-231, 48 h", "value": "≥ 10", "unit": "µM"},
      {"measurement": "reduction in Ras-GTP", "setting": "Ras-GTP in MCF-10A cells", "value": "approximately 40%"},
      {"measurement": "reduction in pAKT", "setting": "[2]", "value": "up to 60%"},
      {"measurement": "reduction in pERK", "setting": "[2]", "value": "up to 70%"},
      {"measurement": "reduction in pAKT", "setting": "[3]", "value": 25, "unit": "%"},
      {"measurement": "reduction in pERK", "setting": "[3]", "value": 40, "unit": "%"},
      {"measurement": "reduction in pAKT", "setting": "[4]", "value": "> 70", "unit": "%"},
      {"measurement": "reduction in pERK", "setting": "[4]", "value": "approximately 30%"},
      {"measurement": "percentage of cells in S phase", "setting": "MDA-MB-231RR cells [5]", "value": 20.7, "unit": "%"},
      {"measurement": "reduction in colony formation", "setting": "MDA-MB-231RR cells [6]", "value": "up to 90%"},
      {"measurement": "colonies persisted", "setting": "MDA-MB-231RR cells [6]; C14 at IC50-48", "value": "~10", "unit": "%"},
      {"measurement": "reduction in colony formation", "setting": "MDA-MB-231 cells [7]", "value": "up to 95%"},
      {"measurement": "reduction in cyclin D1 expression", "setting": "[8]", "value": 20, "unit": "%"},
      {"measurement": "reduction in GSK3β expression", "setting": "[8]", "value": "did not show an effect"},
      {"measurement": "reduction in cyclin D1", "setting": "[9]", "value": 40, "unit": "%"},
      {"measurement": "reduction in GSK3β expression", "setting": "[9]", "value": 50, "unit": "%"}
    ]},
    {"molecule": "N.N.[Cl][Pt][Cl]", "note": "[Cisplatin, cisplatin, reference compound]", "values": [
      {"measurement": "reduction in Ras-GTP", "setting": "Ras-GTP in MCF-10A cells", "value": "did not show an effect"},
      {"measurement": "reduction in colony formation", "setting": "MDA-MB-231RR cells [6]", "value": 99, "unit": "%"},
      {"measurement": "reduction in colony formation", "setting": "MDA-MB-231 cells [7]", "value": "significant reduction"},
      {"measurement": "reduction in cyclin D1 expression", "setting": "[8]", "value": 10, "unit": "%"},
      {"measurement": "reduction in cyclin D1", "setting": "[9]", "value": 20, "unit": "%"}
    ]},
    {"molecule": "O=C(CN1CCN(c2cccc(Cl)c2)CC1)N[C@@H]1CCOc2ccccc21", "note": "[P8, 2-[4-(3-chlorophenyl)piperazin-1-yl]-N-[(4R)-chroman-4-yl]acetamide]", "values": [
      {"measurement": "IC50", "setting": "MDA-MB-231 cells [1]; Homo sapiens, MDA-MB-231, 24 h, read-out: IC50-24", "value": "140 ± 33.5", "unit": "µM"},
      {"measurement": "IC50", "setting": "MDA-MB-231 cells [1]; Homo sapiens, MDA-MB-231, 48 h, read-out: IC50-48", "value": "63.2 ± 10.6", "unit": "µM"},
      {"measurement": "concentration from which a significant cytotoxic effect is seen", "setting": "MDA-MB-231 cells [1]; MDA-MB-231, 48 h", "value": "≥ 10", "unit": "µM"},
      {"measurement": "reduction in Ras-GTP", "setting": "Ras-GTP in MCF-10A cells", "value": "approximately 40%"},
      {"measurement": "reduction in pAKT", "setting": "[2]", "value": "up to 70%"},
      {"measurement": "reduction in pERK", "setting": "[2]", "value": "up to 70%"},
      {"measurement": "reduction in pAKT", "setting": "[3]", "value": 25, "unit": "%"},
      {"measurement": "reduction in pERK", "setting": "[3]", "value": 40, "unit": "%"},
      {"measurement": "reduction in pAKT", "setting": "[4]", "value": "> 70", "unit": "%"},
      {"measurement": "reduction in pERK", "setting": "[4]", "value": 35, "unit": "%"},
      {"measurement": "percentage of cells in S phase", "setting": "MDA-MB-231RR cells [5]", "value": 26.4, "unit": "%"},
      {"measurement": "reduction in colony formation", "setting": "MDA-MB-231RR cells [6]", "value": "up to 99%"},
      {"measurement": "reduction in colony formation", "setting": "MDA-MB-231 cells [7]", "value": "up to 95%"},
      {"measurement": "reduction in cyclin D1 expression", "setting": "[8]", "value": 20, "unit": "%"},
      {"measurement": "reduction in GSK3β expression", "setting": "[8]", "value": 40, "unit": "%"},
      {"measurement": "reduction in cyclin D1", "setting": "[9]", "value": 18, "unit": "%"},
      {"measurement": "reduction in GSK3β expression", "setting": "[9]", "value": 25, "unit": "%"}
    ]}
  ]
}
